Laboratory results: patent US11034725B2, “Compositions and methods for treating cardiovascular disease” (Genentech, Inc., priority 2016, dated 2021)
Like-named read-outs stand apart in the source and are kept apart here. Bridge positions count the residues as written; N and C are the ends. Square brackets hold non-standard residues; d marks the D form. Peptide text beside a SMILES is read from it. * marks the point of attachment. Fmoc = O=C(OCC1c2ccccc2-c2ccccc21)*; Aun = NCCCCCCCCCCC(=O)O; Pentanoyl = CCCCC(=O)*

Columns and labels:
[1] = tested on: His-EGF(A)-Fc; experiment: His-EGF(A)-Fc TR-FRET counterscreen
Experimental: (§1) The former was based on a TF-FRET assay to measure the association of the EGF(A) domain of the LDLR to PCSK9 (“PCSK9/EGF(A) binding assay”) whilst the latter was based on a TR-FRET assay to measure binding of Ab20 to PCSK9Δhelix (“PCSK9Δhelix/Ab20 binding assay”).
(§2) The ability of compounds to inhibit binding to PCSK9 was evaluated with a panel of time-resolved fluorescence resonance energy transfer (TR-FRET) binding assays. […] The PCSK9Δhelix/Ab20 binding assay evaluated the ability of compounds to compete with Ab20 for binding to the N-terminal groove region in a His-tagged, PCSK9Δhelix construct. […] Signal generation in the PCSK9 binding assays was dependent upon the binding interaction to bring into close proximity the His-tag on the PCSK9 and the Fc-tag on the ligand. Anti-His-APC was bound to the His-tag, and anti-Fc-europium was bound to the Fc-tag. When these two antibodies were in close proximity and were irradiated with light at 340 nm, the europium was excited and emitted energy at 615 nm. This energy was taken up by the APC and was emitted as light at 665 nm. Compounds that competed with the ligand reduced the energy transfer and thus the emission at 665 nm. In the His-EGFA-Fc molecule in the counterscreen, the two tags were always in close proximity, thus any reduction in emission at 665 nm was due to interference with the detection system.
(§3) Compounds were solubilized and dilutions were prepared in DMSO. […] The plate was centrifuged to mix the well contents and allowed to incubate for 30 min. […] The TR-FRET signal was read on a ViewLux reader (PerkinElmer) with excitation at 340 nm and emission at 615 and 665 nm with a 50-μs time delay between excitation and measurement of emission. The TR-FRET ratio was calculated as the fluorescence emission at 665 nm divided by the fluorescence emission at 615 nm. The normalized TR-FRET ratios were plotted as a function of the compound concentrations, and the IC50 values were determined using a 4-parameter logistic regression.
(§4) In black 1536-well assay plates (MaKO, Aurora® Microplates, Whitefish, Mont.), 40 nL of peptide in DMSO were preincubated with 2 μL His-tagged PCSK9 plus anti-His-allophycocyanin in assay buffer (50 mM Tris-HCl, pH 7.5, 150 mM NaCl, 2 mM CaCl2, 0.01% Tween®-20, 0.1% bovine gamma globulins, and protease inhibitor cocktail) for 30 min. Then 2 μL of Fc-tagged ligand and anti-Fc-europium in assay buffer were added and allowed to incubate for 2 h.

[2] = target: PCSK9 (Homo sapiens, UniProt Q8NBP7); experiment: PCSK9/EGF(A) TR-FRET binding assay; settings: TR-FRET, read-out: PCSK9/EGF(A) IC50
Sequence of PCSK9 (Q8NBP7 153-692): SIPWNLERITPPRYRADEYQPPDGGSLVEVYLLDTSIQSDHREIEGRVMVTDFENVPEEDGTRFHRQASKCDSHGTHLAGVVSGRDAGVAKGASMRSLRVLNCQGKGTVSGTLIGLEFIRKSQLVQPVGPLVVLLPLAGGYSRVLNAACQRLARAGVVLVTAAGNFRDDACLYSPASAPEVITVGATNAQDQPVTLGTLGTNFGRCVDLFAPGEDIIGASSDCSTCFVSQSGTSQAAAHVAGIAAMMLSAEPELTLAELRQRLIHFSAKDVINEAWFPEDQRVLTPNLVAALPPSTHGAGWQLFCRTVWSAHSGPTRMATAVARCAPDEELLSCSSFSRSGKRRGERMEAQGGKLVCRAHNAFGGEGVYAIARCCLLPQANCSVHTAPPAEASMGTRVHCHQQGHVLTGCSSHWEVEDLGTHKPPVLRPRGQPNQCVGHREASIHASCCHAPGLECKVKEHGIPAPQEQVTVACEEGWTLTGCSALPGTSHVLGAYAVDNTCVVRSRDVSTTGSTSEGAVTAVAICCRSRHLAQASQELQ
Sequence of PCSK9 (Q8NBP7 31-152 partner limits assumed): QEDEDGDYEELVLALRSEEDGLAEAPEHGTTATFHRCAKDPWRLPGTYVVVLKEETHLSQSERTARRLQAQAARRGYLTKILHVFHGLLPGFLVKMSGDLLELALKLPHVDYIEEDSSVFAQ

[3] = target: T1, PCSK9Δhelix (Homo sapiens, UniProt Q8NBP7); experiment: PCSK9Δhelix/Ab20 TR-FRET binding assay
T1 construct: Human PCSK9 construct M1-Q692 with an engineered TEV site (residue deletion Y166, R167); made in house; host or cells: CHO
T1 sequence (Q8NBP7 with tags, fused parts or gaps limits assumed): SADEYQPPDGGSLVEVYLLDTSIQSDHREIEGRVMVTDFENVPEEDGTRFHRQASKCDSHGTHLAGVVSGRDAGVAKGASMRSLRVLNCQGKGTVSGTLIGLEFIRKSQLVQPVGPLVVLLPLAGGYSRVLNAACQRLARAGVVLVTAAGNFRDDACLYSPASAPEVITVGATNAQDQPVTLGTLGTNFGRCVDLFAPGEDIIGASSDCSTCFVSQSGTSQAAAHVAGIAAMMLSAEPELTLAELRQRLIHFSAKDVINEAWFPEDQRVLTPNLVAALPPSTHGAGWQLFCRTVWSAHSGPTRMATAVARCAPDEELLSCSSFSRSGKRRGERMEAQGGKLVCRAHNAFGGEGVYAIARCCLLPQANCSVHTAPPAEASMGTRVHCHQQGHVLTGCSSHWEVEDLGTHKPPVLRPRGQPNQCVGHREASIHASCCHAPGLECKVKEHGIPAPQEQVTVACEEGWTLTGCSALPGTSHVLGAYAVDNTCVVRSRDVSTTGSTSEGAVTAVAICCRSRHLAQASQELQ
T1 sequence (Q8NBP7 31-152 partner limits assumed): as the sequence (Q8NBP7 31-152 partner limits assumed) above
Experimental: as §1, §2, §3, §4

[4] = TR-FRET counterscreen, Table 8D, * = some inhibition at highest concentrations, not sufficient to fit an IC50
[5] = TR-FRET counterscreen, Table 8E, additional compounds
[6] = TR-FRET, Example 7, read-out: PCSK9Δhelix/Ab20 IC50

Row | Molecule | IC50 [3, 6] [µM] | IC50 ([1]; counterscreen, Example 7) [µM] | also measured
1 | CC[C@H](C)[C@@H]1NC(=O)[C@H](CCCNC(=N)N)NC(=O)[C@H](CCC(N)=O)NC(=O)[C@H](CC(C)C)NC(=O)[C@H](CC(N)=O)NC(=O)[C@H](Cc2c[nH]c3ccccc23)NC(=O)[C@@H]2CCCN2C(=O)[C@H](CC(C)C)NC(=O)[C@H](CCCNC(=N)N)NC(=O)[C@@H](NC(C)=O)CSSC[C@@H](C(N)=O)NC(=O)CNC(=O)[C@H](CC(C)C)NC(=O)CNC1=O [Compound 80] (Ac-CRLPWNLQRIGLGC-NH2; disulfide 1-14) | – | – | IC50 [1, 4]: > 50 µM; IC50 ([2]; Table 8D, disulfide-cyclized extension peptides): > 50 µM
2 | Ac-SFAFPGWNLVRIGLLR-NH2 [Compound 154] | – | – | IC50 [1, 5]: > 50 µM; IC50 ([2]; Table 8E, additional compounds): 11 µM
3 | Ac-DSYPGWNLVRIGLLR-NH2 [Compound 155] | – | – | IC50 [1, 5]: > 50 µM; IC50 ([2]; Table 8E, additional compounds): 11 µM
4 | CCCCC(=O)N[C@@H](Cc1c[nH]c2ccccc12)C(=O)N[C@@H](CC(N)=O)C(=O)N[C@@H](CC(C)C)C(=O)N[C@H](C(=O)N[C@@H](CCCNC(=N)N)C(=O)N[C@H](C(=O)NCC(=O)N[C@@H](CC(C)C)C(=O)N[C@@H](CCC(=O)O)C(=O)N[C@@H](CCCNC(=N)N)C(N)=O)[C@@H](C)CC)C(C)C [Compound 177] (Pentanoyl-WNLVRIGLER-NH2) | – | – | IC50 [1, 5]: ≥ 50 µM; IC50 ([2]; Table 8E, additional compounds): ≥ 50 µM
5 | CC[C@H](C)[C@H](NC(=O)[C@H](CCCNC(=N)N)NC(=O)[C@H](CCCCN)NC(=O)[C@H](CC(C)C)NC(=O)[C@H](CC(N)=O)NC(=O)[C@H](Cc1c[nH]c2ccccc12)NC(=O)[C@H](C)NC(=O)CCCCCNC(=O)[C@@H](NC(=O)[C@H](Cc1c[nH]c2ccccc12)NC(=O)[C@H](CC(=O)O)NC(=O)[C@H](CC(C)C)NC(=O)[C@H](Cc1ccc(O)cc1)NC(=O)[C@H](CCC(=O)O)NC(=O)[C@H](CCC(=O)O)NC(=O)[C@H](Cc1c[nH]c2ccccc12)NC(=O)[C@H](CO)NC(=O)[C@@H](NC(=O)[C@H](Cc1ccccc1)NC(=O)[C@@H](NC(=O)[C@@H](NC(C)=O)[C@@H](C)O)C(C)C)[C@@H](C)O)C(C)C)C(N)=O [Compound 93] | 0.016 | > 50 | –
6 | CC(=O)N[C@H](C(=O)N[C@H](C(=O)N[C@@H](Cc1ccccc1)C(=O)N[C@H](C(=O)N[C@@H](CO)C(=O)N[C@@H](Cc1c[nH]c2ccccc12)C(=O)N[C@@H](CCC(=O)O)C(=O)N[C@@H](CCC(=O)O)C(=O)N[C@@H](Cc1ccc(O)cc1)C(=O)N[C@@H](CC(C)C)C(=O)N[C@@H](CC(=O)O)C(=O)N[C@@H](Cc1c[nH]c2ccccc12)C(=O)N[C@H](C(=O)NCCCCCC(=O)N[C@@H](CCCCN)C(=O)N[C@@H](CC(C)C)C(=O)N[C@@H](Cc1c[nH]c2ccccc12)C(=O)N[C@@H](CC(N)=O)C(=O)N[C@@H](CC(C)C)C(=O)NCC(=O)N[C@@H](CCCNC(=N)N)C(=O)N[C@H](C(N)=O)C(C)C)C(C)C)[C@@H](C)O)C(C)C)[C@@H](C)O [Compound 18] | 0.04 | > 50 | –
7 | CC[C@H](C)[C@@H]1NC(=O)[C@H](CCCNC(=N)N)NC(=O)[C@H](CCC(N)=O)NC(=O)[C@H](CC(C)C)NC(=O)[C@H](CC(N)=O)NC(=O)[C@H](Cc2c[nH]c3ccccc23)NC(=O)[C@@H]2CCCN2C(=O)[C@H](CC(C)C)NC(=O)[C@H](Cc2ccccc2)NC(=O)[C@@H](NC(=O)CNC(=O)CNC(=O)[C@H](CO)NC(=O)CNC(=O)[C@@H](NC(=O)[C@H](Cc2c[nH]c3ccccc23)NC(=O)[C@H](CC(=O)O)NC(=O)[C@H](CC(C)C)NC(=O)[C@H](Cc2ccc(O)cc2)NC(=O)[C@H](CCC(=O)O)NC(=O)[C@H](CCC(=O)O)NC(=O)[C@H](Cc2c[nH]c3ccccc23)NC(=O)[C@H](CO)NC(=O)[C@@H](NC(=O)[C@H](Cc2ccccc2)NC(=O)[C@@H](NC(=O)[C@@H](NC(C)=O)[C@@H](C)O)C(C)C)[C@@H](C)O)C(C)C)CSSC[C@@H](C(N)=O)NC(=O)[C@H](CC(C)C)NC(=O)[C@H](CC(C)C)NC(=O)CNC1=O [Compound 38] (Ac-TVFTSWEEYLDWVGSGGCFLPWNLQRIGLLC-NH2; disulfide 18-31) | 0.003 | > 50 | inhibition in the PCSK9Δhelix/Ab20 binding assay [3]: potent inhibitors
8 | Ac-TVFTSWEEYLDWVGGSGKLWNLGRV-NH2 [Compound 8] | 0.049 | > 50 | –
9 | CC[C@H](C)[C@@H]1NC(=O)[C@H](CCCNC(=N)N)NC(=O)[C@H](CCCCN)NC(=O)[C@H](CC(C)C)NC(=O)[C@H](CC(N)=O)NC(=O)[C@H](Cc2c[nH]c3ccccc23)NC(=O)[C@@H](NC(=O)CNC(=O)[C@H](CO)NC(=O)CNC(C)=O)CSSC[C@@H](C(=O)N[C@@H](Cc2c[nH]c3ccccc23)C(N)=O)NC(=O)CNC(=O)[C@H](CCC(N)=O)NC(=O)[C@H](CO)NC(=O)CNC1=O [Compound 40] (Ac-GSGCWNLKRIGSQGCW-NH2; disulfide 4-15) | – | – | IC50 ([3]; PCSK9Δhelix/Ab20 IC50, TR-FRET, Table 8D, disulfide-cyclized extension peptides): 2.41 µM; IC50 [1, 4]: > 50 µM
10 | CC(=O)N[C@H](C(=O)N[C@H](C(=O)N[C@@H](Cc1ccccc1)C(=O)N[C@H](C(=O)N[C@@H](CO)C(=O)N[C@@H](Cc1c[nH]c2ccccc12)C(=O)N[C@@H](CCC(=O)O)C(=O)N[C@@H](CCC(=O)O)C(=O)N[C@@H](Cc1ccc(O)cc1)C(=O)N[C@@H](CC(C)C)C(=O)N[C@@H](CC(=O)O)C(=O)N[C@@H](Cc1c[nH]c2ccccc12)C(=O)N[C@H](C(=O)NCCCCCCC(=O)N[C@@H](CCCCN)C(=O)N[C@@H](CC(C)C)C(=O)N[C@@H](Cc1c[nH]c2ccccc12)C(=O)N[C@@H](CC(N)=O)C(=O)N[C@@H](CC(C)C)C(=O)NCC(=O)N[C@@H](CCCNC(=N)N)C(=O)N[C@H](C(N)=O)C(C)C)C(C)C)[C@@H](C)O)C(C)C)[C@@H](C)O [Compound 16] | 0.028 | > 50 | –
11 | CC(=O)N[C@H]1CSSC[C@@H](C(N)=O)NC(=O)CCCCCCCCCCNC(=O)[C@H](CCCNC(=N)N)NC(=O)[C@H](CCC(N)=O)NC(=O)[C@H](CC(C)C)NC(=O)[C@H](CC(N)=O)NC(=O)[C@H](Cc2c[nH]c3ccccc23)NC(=O)[C@@H]2CCCN2C(=O)[C@H](CC(C)C)NC(=O)[C@H](CCCNC(=N)N)NC1=O [Compound 83] (Ac-CRLPWNLQR[Aun]C-NH2; disulfide 1-11 (inferred)) | – | – | inhibition in the PCSK9Δhelix/Ab20 binding assay [3]: removes inhibition; IC50 [1, 4]: > 50 µM
12 | CC[C@H](C)[C@@H]1NC(=O)[C@H](CCCNC(=N)N)NC(=O)[C@H](CCCCN)NC(=O)[C@H](CC(C)C)NC(=O)[C@H](CC(N)=O)NC(=O)[C@H](Cc2c[nH]c3ccccc23)NC(=O)[C@@H](NC(=O)CNC(=O)[C@H](CO)NC(=O)CNC(=O)OCC2c3ccccc3-c3ccccc32)CSSC[C@@H](C(N)=O)NC(=O)CNC(=O)[C@H](CCC(N)=O)NC(=O)[C@H](CO)NC(=O)CNC1=O [Compound 98] (Fmoc-GSGCWNLKRIGSQGC-NH2; disulfide 4-15) | – | – | IC50 ([3]; PCSK9Δhelix/Ab20 IC50, TR-FRET, Example 7): 3.6 µM; IC50 [1, 4]: > 50 µM
13 | CC(=O)N[C@H](C(=O)N[C@H](C(=O)N[C@@H](Cc1ccccc1)C(=O)N[C@H](C(=O)N[C@@H](CO)C(=O)N[C@@H](Cc1c[nH]c2ccccc12)C(=O)N[C@@H](CCC(=O)O)C(=O)N[C@@H](CCC(=O)O)C(=O)N[C@@H](Cc1ccc(O)cc1)C(=O)N[C@@H](CC(C)C)C(=O)N[C@@H](CC(=O)O)C(=O)N[C@@H](Cc1c[nH]c2ccccc12)C(=O)N[C@H](C(=O)NCCCCCC(=O)N[C@@H](C)C(=O)N[C@@H](Cc1c[nH]c2ccccc12)C(=O)N[C@@H](CC(N)=O)C(=O)N[C@@H](CC(C)C)C(=O)N[C@@H](CCCCN)C(=O)N[C@@H](CCCNC(=N)N)C(N)=O)C(C)C)[C@@H](C)O)C(C)C)[C@@H](C)O [Compound 94] | 1.41 | > 50 | –
14 | Ac-TVFTSWEEYLDWVGSGKLWNLGR-NH2 [Compound 4] | 1.52 | > 50 | –
15 | Ac-TVFTSWEEYLDWVGSGKLWNL-NH2 [Compound 6] | 10 | > 50 | –
16 | Ac-TVFTSWEEYLDWVGSGKLWNLG-NH2 [Compound 5] | 11.1 | > 50 | –
